# From ChEMBL document CHEMBL1255495, “Experimental conditions that enhance potency of an antibacterial oligo-acyl-lysyl” (2010)
# The source made the active and inactive calls. The calls are words filed in the database; no cut-off is given here.
# What was measured:
# [1] = tested on: Escherichia coli; assay: Antibacterial activity against Escherichia coli O157:H7 ATCC 43894 at pH 3.5 after 24 hrs by microdilution method; type: functional; details: O157:H7 ATCC 43894, 24 h
# [2] = tested on: Escherichia coli; assay: Antibacterial activity against Escherichia coli O157:H7 ATCC 43894 at pH 5.5 after 24 hrs by microdilution method; type: functional; details: O157:H7 ATCC 43894, 24 h
# [3] = tested on: Escherichia coli; assay: Antibacterial activity against Escherichia coli O157:H7 ATCC 43894 at pH 7 after 24 hrs by microdilution method; type: functional; details: O157:H7 ATCC 43894, 24 h
# [4] = tested on: Escherichia coli; assay: Antibacterial activity against Escherichia coli O157:H7 ATCC 43894 at pH 8.5 after 24 hrs by microdilution method; type: functional; details: O157:H7 ATCC 43894, 24 h
# [5] = tested on: Escherichia coli; assay: Antibacterial activity against Escherichia coli O157:H7 ATCC 43894 after 24 hrs by microdilution method in presence of 85 mM NaCl; type: functional; details: O157:H7 ATCC 43894, 24 h
# [6] = tested on: Escherichia coli; assay: Antibacterial activity against Escherichia coli O157:H7 ATCC 43894 after 24 hrs by microdilution method in presence of 170 mM NaCl; type: functional; details: O157:H7 ATCC 43894, 24 h
# [7] = tested on: Staphylococcus aureus; assay: Antibacterial activity against methicillin-resistant Staphylococcus aureus isolate 15903 after 24 hrs at 48 degC by microdilution method; type: functional; details: isolate 15903, 24 h
# [8] = tested on: Staphylococcus aureus; assay: Antibacterial activity against Staphylococcus aureus ATCC 25923 at pH 7 after 24 hrs by microdilution method; type: functional; details: ATCC 25923, 24 h
# [9] = tested on: Staphylococcus aureus; assay: Antibacterial activity against Staphylococcus aureus ATCC 29213 at pH 7 after 24 hrs by microdilution method; type: functional; details: ATCC 29213, 24 h
# [10] = tested on: Staphylococcus aureus; assay: Antibacterial activity against methicillin-resistant Staphylococcus aureus ATCC 43300 at pH 7 after 24 hrs by microdilution method; type: functional; details: ATCC 43300, 24 h
# [11] = tested on: Escherichia coli; assay: Antibacterial against Escherichia coli O157:H7 ATCC 43894 at pH 8.5 after 24 hrs at 48 degC by microdilution method in presence of 85 mM NaCl; type: functional; details: O157:H7 ATCC 43894, 24 h
# [12] = tested on: Listeria monocytogenes; assay: Antibacterial against Listeria monocytogenes ATCC 19115 at pH 8.5 after 24 hrs at 48 degC by microdilution method in presence of 85 mM NaCl; type: functional; details: ATCC 19115, 24 h
# [13] = tested on: Staphylococcus aureus; assay: Antibacterial against methicillin-resistant Staphylococcus aureus isolate 15903 at pH 8.5 after 24 hrs at 48 degC by microdilution method in presence of 85 mM NaCl; type: functional; details: isolate 15903, 24 h
# [14] = tested on: Lipid bilayer; assay: Binding affinity to phospholipid membrane model at pH 8.5 by surface plasmon resonance in presence of 140 mM NaCl
# [15] = tested on: Listeria monocytogenes; assay: Ratio of MIC for Listeria monocytogenes ATCC 19115 in presence of 85 mM NaCl to MIC for Listeria monocytogenes ATCC 19115 at pH 8.5 after 24 hrs at 48 degC in presence of 85 mM NaCl; type: functional
# [16] = tested on: Staphylococcus aureus; assay: Ratio of MIC for methicillin-resistant Staphylococcus aureus isolate 15903 in presence of 85 mM NaCl to MIC for methicillin-resistant Staphylococcus aureus isolate 15903 at pH 8.5 after 24 hrs at 48 degC in presence of 85 mM NaCl; type: functional
# [17] = tested on: Escherichia coli; assay: Antibacterial activity against Escherichia coli O157:H7 ATCC 43894 assessed as reduction in bacterial population at 0.01 to 10 uM up to 15 mins by time-kill assay; type: functional
# [18] = tested on: Listeria monocytogenes; assay: Antibacterial activity against Listeria monocytogenes ATCC 19115 assessed as reduction in bacterial population at 0.01 to 10 uM up to 15 mins by time-kill assay; type: functional
# [19] = tested on: Staphylococcus aureus; assay: Antibacterial activity against methicillin-resistant Staphylococcus aureus isolate 15903 assessed as reduction in bacterial population at 0.01 to 10 uM up to 15 mins by time-kill assay; type: functional
# [20] = tested on: Lipid bilayer; assay: Binding affinity to phospholipid membrane model at pH 7 by surface plasmon resonance in presence of 140 mM NaCl
# [21] = tested on: Escherichia coli; assay: Antibacterial activity against Escherichia coli O157:H7 ATCC 43894 after 24 hrs by microdilution method in presence of 260 mM NaCl; type: functional; details: O157:H7 ATCC 43894, 24 h
# [22] = tested on: Escherichia coli; assay: Antibacterial activity against Escherichia coli O157:H7 ATCC 43894 after 24 hrs by microdilution method in presence of 515 mM NaCl; type: functional; details: O157:H7 ATCC 43894, 24 h
# [23] = tested on: Escherichia coli; assay: Antibacterial activity against Escherichia coli O157:H7 ATCC 43894 after 24 hrs by microdilution method in presence of 1030 mM NaCl; type: functional; details: O157:H7 ATCC 43894, 24 h
# [24] = tested on: Escherichia coli; assay: Antibacterial activity against Escherichia coli O157:H7 ATCC 43894 after 24 hrs by microdilution method in presence of 20 mM MgCl2; type: functional; details: O157:H7 ATCC 43894, 24 h
# [25] = tested on: Escherichia coli; assay: Antibacterial activity against Escherichia coli O157:H7 ATCC 43894 after 24 hrs by microdilution method in presence of 40 mM MgCl2; type: functional; details: O157:H7 ATCC 43894, 24 h
# [26] = tested on: Escherichia coli; assay: Antibacterial activity against Escherichia coli O157:H7 ATCC 43894 after 24 hrs by microdilution method in presence of 80 mM MgCl2; type: functional; details: O157:H7 ATCC 43894, 24 h
# [27] = tested on: Escherichia coli; assay: Antibacterial activity against Escherichia coli O157:H7 ATCC 43894 after 24 hrs by microdilution method in presence of 160 mM MgCl2; type: functional; details: O157:H7 ATCC 43894, 24 h
# [28] = tested on: Escherichia coli; assay: Antibacterial activity against Escherichia coli O157:H7 ATCC 43894 after 72 hrs at 4 degC by microdilution method; type: functional; details: O157:H7 ATCC 43894, 72 h
# [29] = tested on: Escherichia coli; assay: Antibacterial activity against Escherichia coli O157:H7 ATCC 43894 after 24 hrs at 25 degC by microdilution method; type: functional; details: O157:H7 ATCC 43894, 24 h
compound,measurement,setting,value
CCCCCCCCCCCC(=O)N[C@@H](CCCCN)C(=O)NCCCCCCCC(=O)N[C@@H](CCCCN)C(=O)NCCCCCCCC(=O)N[C@@H](CCCCN)C(=O)NCCCCCCCC(=O)N[C@@H](CCCCN)C(=O)NCCCCCCCC(=O)N[C@@H](CCCCN)C(=O)NCCCCCCCC(=O)N[C@@H](CCCCN)C(=O)NCCCCCCCC(=O)N[C@@H](CCCCN)C(=O)NCCCCCCCC(=O)N[C@@H](CCCCN)C(N)=O,MIC,[1],> 50 µM
same,MIC,[2],3.1 µM
same,MIC,[3],3.1 µM
same,MIC,[4],1.6 µM
same,MIC,[5],3.1 µM
same,MIC,[6],3.1 µM
same,MIC,[7],3.1 µM
same,MIC,[8],25 µM
same,MIC,[9],50 µM
same,MIC,[10],50 µM
same,MIC,[11],0.2 µM
same,MIC,[12],0.05 µM
same,MIC,[13],0.8 µM
same,Activity,[14],Active
same,Ratio,[15],32
same,Ratio,[16],16
same,inhibition (INH),[17],99%
same,inhibition (INH),[18],99%
same,inhibition (INH),[19],99%
same,Activity,[20],inactive
same,MIC,[21],6.3 µM
same,MIC,[22],6.3 µM
same,MIC,[23],12.5 µM
same,MIC,[24],3.1 µM
same,MIC,[25],6.3 µM
same,MIC,[26],12.5 µM
same,MIC,[27],50 µM
same,MIC,[28],6.3 µM
same,MIC,[29],3.1 µM
